Experiments:
JMJD2A (KDM4A) = biological target: T1, JMJD2A (KDM4A) (Homo sapiens, UniProt O75164); conditions: demethylase activity in vitro; cited from earlier work
T1 sequence (O75164 1-1064): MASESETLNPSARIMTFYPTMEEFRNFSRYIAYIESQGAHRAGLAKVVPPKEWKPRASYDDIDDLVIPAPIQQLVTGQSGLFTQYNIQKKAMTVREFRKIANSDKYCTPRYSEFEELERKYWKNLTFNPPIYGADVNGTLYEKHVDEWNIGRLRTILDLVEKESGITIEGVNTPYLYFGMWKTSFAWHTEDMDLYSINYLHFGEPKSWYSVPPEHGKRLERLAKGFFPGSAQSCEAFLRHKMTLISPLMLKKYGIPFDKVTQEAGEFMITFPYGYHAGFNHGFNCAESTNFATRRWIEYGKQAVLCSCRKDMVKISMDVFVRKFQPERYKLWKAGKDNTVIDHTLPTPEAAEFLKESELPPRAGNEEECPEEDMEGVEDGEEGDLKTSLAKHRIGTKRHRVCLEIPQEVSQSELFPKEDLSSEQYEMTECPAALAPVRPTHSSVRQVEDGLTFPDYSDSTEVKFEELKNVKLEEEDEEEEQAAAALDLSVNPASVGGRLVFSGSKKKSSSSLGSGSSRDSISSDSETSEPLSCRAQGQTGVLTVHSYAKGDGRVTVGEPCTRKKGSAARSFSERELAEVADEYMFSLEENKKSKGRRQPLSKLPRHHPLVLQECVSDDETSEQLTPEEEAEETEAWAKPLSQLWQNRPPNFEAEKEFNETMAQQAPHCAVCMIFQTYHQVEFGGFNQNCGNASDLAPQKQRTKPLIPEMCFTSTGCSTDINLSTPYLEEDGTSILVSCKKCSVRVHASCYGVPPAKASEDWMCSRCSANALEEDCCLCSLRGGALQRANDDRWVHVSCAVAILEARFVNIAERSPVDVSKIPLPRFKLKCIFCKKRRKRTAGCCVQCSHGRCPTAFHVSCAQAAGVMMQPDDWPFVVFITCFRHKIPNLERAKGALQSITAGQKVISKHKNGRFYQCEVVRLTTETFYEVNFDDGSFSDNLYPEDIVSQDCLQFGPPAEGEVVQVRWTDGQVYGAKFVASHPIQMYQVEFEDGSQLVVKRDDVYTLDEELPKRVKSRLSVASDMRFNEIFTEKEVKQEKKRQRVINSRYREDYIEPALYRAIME

[1] = tested on: Barrett's stem cells (GFP) and esophageal squamous stem cells (RFP); assay: 3D air-liquid interface (ALI) co-culture of Barrett's and esophageal stem cells; assay type: cell-based, human; conditions: in the presence of Ponatinib
Method: A 3D culture model was generated to mimic Barrett's Esophagus in vitro. The esophageal squamous stem cells and Barrett's stem cells were co-cultured in the transwell insert. Following the creation of air-liquid interface, it was observed that the BE islands located among well-differentiated squamous epithelium that well recapitulated the histology of human BE in the patient. Given the similarity of this artificial model and human pathology, the hits were tested in this system to further validate them. […] The esophageal squamous stem cells were labeled with red fluorescent protein (RFP) while Barrett's stem cells were labeled with green fluorescent protein (GFP). Without the treatment, it was observed that a mixture of GFP and RFP labeled cells in culture.

[2] = tested on: Barrett's, dysplasia or EAC stem cells; assay: Co-culture of esophageal stem cells with Barrett's, dysplasia or EAC stem cells; assay type: cell-based, human; conditions: together with 1 μM Ponatinib
Method: FIG. 6. Patient-matched BE, dysplasia and cancer stem cells (Krt7+, Green) were mixed with Krt5+ (red) ESO cells and co-cultured for five days and then treated with seven selected drugs together with 1 μM Ponatinib.
BE has been known to be the precursor of the dysplastic and cancerous lesions of EAC. […] Moreover, PCA analysis of Barrett's stem cells derived from 12 patients together with dysplasia, cancer and Esophageal squamous stem cells confirmed that the stem cells of dysplasia and cancer shared very similar gene expression with Barrett's stem cells (FIGS. 4A & B). […] The effects of the eight drug hits in combination with Ponatinib were tested in the cell culture of co-seeding esophageal stem cells and Barrett's, dysplasia or EAC stem cells. […] Given these three entities always co-exist in patients with EAC, our strategies of eradicating all of them could help to eliminate the chance of recurrence of EAC patients drastically.

[3] = tested on: dysplasia and cancer stem cells; assay: Mice xenografted with dysplasia and cancer stem cells; assay type: in vivo; conditions: with Ponatinib
From the text: FIG. 5C. Schematic of in vivo validation of drug combinations in mice xenografted with dysplasia and cancer stem cells. Following the treatment, the xenografts were processed for histological analysis or clonogenic assays to detect the existence of stem cells.

[4] = tested on: aggressive breast cancer model; conditions: in vivo; cited from earlier work
[5] = tested on: Barrett's stem cells and Esophageal stem cells; assay: Co-culture of Barrett's stem cell lines and Esophageal stem cells; assay type: cell-based, human; conditions: in the presence of Ponatinib
[6] = tested on: esophageal squamous stem cells (ESO stem cells, Krt5+); assay: High throughput chemical screening and dose response on GFP-labeled stem cells; assay type: cell-based, human; conditions: in the presence of 1 μM Ponatinib

Compound: Clc1ccc(N/N=C(\c2ccccc2)c2ccccn2)nc1 [JIB04]
- IC50 (JMJD2A (KDM4A)): ~440 nM
- cross sections of the ALI structures [1]: intact esophageal squamous epithelium without any existence of Barrett's epithelium
- GFP labeled Barrett's stem cells in 3D ALI co-culture ([1]; eight Barrett's stem cell lines): disappearance
- growth of BE, dysplasia and cancer stem cells in co-culture with ESO cells [2]: most effective
- Dysplastic structures (Krt7+/Ki67+) in xenografts [3]: diminished
- eradication of precancerous, dysplastic and cancerous stem cells in mouse xenograft models [3]: eradicate
- stem cells cloned from treated dysplastic structures (rhodamine staining) [3]: not cloned
- tumor burden and survival of mice [4]: reduces tumor burden and prolongs survival
- effect on Esophageal squamous stem cells in co-culture [5]: promoting
- lethality to Barrett's stem cells in co-culture ([5]; nine Barrett's stem cell lines): uniform lethality to all Barrett's stem cells
- effect on Esophageal stem cells [6]: without affecting

— patent US20220202792A1, “METHODS AND COMPOSITIONS FOR TREATING CHRONIC INFLAMMATORY INJURY, METAPLASIA, DYSPLASIA AND CANCERS OF EPITHELIAL TISSUES” (University of Houston System, priority 2019, published 2022)
